Reference: US20110104144A1, “METHODS FOR TREATING CUTANEOUS LUPUS USING AMINOISOINDOLINE COMPOUNDS” (CELGENE CORPORATION, priority 2005, published 2011)

Tests used:
ICAM-1 = experiment: HUVEC cell surface expression of ICAM-1 by flow cytometry; format: cell-based, Human; conditions: TNF-α stimulated, 10 μM, FIG. 5
Procedure: A) Materials. Human Umbilical Vein Endothelial Cells (HUVEC) sent from LifeBank, were tested in Experiments A-K with several adhesion molecules. […]

TNF-α = experiment: Ultraviolet B-induced TNF-alpha production by human keratinocytes (HEKn cells), TNF-α ELISA; format: cell-based
Procedure: Cutaneous lupus patients often experience disease exacerbation when exposed to ultraviolet (UV) light. This is thought to be due to UVB-induced TNF-α production by keratinocytes. […] In vitro study for cutaneous lupus was performed to investigate how the compounds of the invention affect TNF-α production in keratinocytes.
Human neonatal foreskin epidermal keratinocytes (HEKn cells) were obtained from Cascade Biologics and were grown in serum-free medium supplemented with growth factors. When cells reached 80% confluency, they were trypsinized and plated at 1×10^5 cells/well in 6 well dishes. Plates were incubated for 24 hours to allow cell adhesion. To optimize conditions for the release of TNF-α, cells were treated with various degrees of exposure to UVB radiation (1, 4 and 24 hours). Supernatants were then collected and tested in the TNF-α ELISA.
Supernatants were collected and tested in the TNF-α ELISA at 1 Hour (bars with no pattern), 4 Hours (lined bars), or 24 Hours (checkered bars) after exposure. Results are the average of two experiments. The results shown in FIG. 7 indicate that supernatants collected 24 hours after HEKn cells were exposed to UVB had the highest levels of TNF-α. After exposure to 10, 50, or 100 mJ/cm^2, cells remained attached to the wells and no cell damage was observed. The 300 mJ/cm^2 UVB exposure was too high for the HEKn cells and many cells were damaged and detached from the bottom of the wells.
Cells were treated for 4 hours with (+)-2-[1-(3-ethoxy-4-methoxyphenyl)-2-methylsulfonylethyl]-4-acetylaminoisoindoline-1,3-dione (compound named 10004), or cyclopropyl {2-[(1S)-1-(3-ethoxy-4-methoxyphenyl)-2-(methylsulfonyl)ethyl]-3-oxoisoindolin-4-yl}carboxamide (compound named 11050) at 0.1 μM, 1 μM, or 10 μM. Medium was aspirated the cells washed and then exposed to 50 mJ/cm^2 UVB radiation. Fresh medium was added and the cells were incubated for 24 hours. Supernatents were removed and tested in the TNF-α ELISA kit from Pierce Biotechnology. […] (FIG. 8). […] (FIG. 8).
In other experiments, cells were treated for 4 hours with 3-(4-amino-1-oxo-1,3-dihydro-isoindol-2-yl)-piperidine-2,6-dione (compound named 5013), (+)-2-[1-(3-ethoxy-4-methoxyphenyl)-2-methylsulfonylethyl]-4-acetylaminoisoindoline-1,3-dione (compound named 10004) or compound named 16057, at 0.1 μM or 1 μM. […] (FIG. 9). […] (FIG. 9).

CCOc1cc(C(CS(C)(=O)=O)N2C(=O)c3cccc(NC(C)=O)c3C2=O)ccc1OC (single isomer, unassigned; (+)) [Compound (1), (+)-2-[1-(3-ethoxy-4-methoxyphenyl)-2-methylsulfonylethyl]-4-acetylaminoisoindoline-1,3-dione]
increase of ICAM-1 cell surface expression (ICAM-1): approximately 35% | levels of TNF-α released after UVB exposure (TNF-α; HEKn cells treated 4 hours at 0.1 μM or 1 μM, UVB, FIG. 9): dose dependent decrease | levels of TNF-α released after UVB exposure (TNF-α; HEKn cells treated 4 hours at 0.1 μM, 1 μM, or 10 μM, 50 mJ/cm^2 UVB, 24 hours, FIG. 8): dose dependent decrease | TNF-α levels after UVB exposure with the 10 μM treatment (TNF-α; HEKn cells treated 4 hours at 10 μM, 50 mJ/cm^2 UVB, 24 hours, FIG. 8): TNF-α levels similar to cells not treated with radiation
